{
  "source": "patent US20250120399A1",
  "about": "“METHODS AND COMPOSITIONS FOR ALTERING METABOLITES IN VITIS SPP. AND PREVENTING PESTS AND PATHOGENS” (Impello Biosciences, Inc., priority 2022, published 2025)",
  "key": {"[1]": {"test_system": "Grapevine (Malbec variety)", "experiment": "Leaf sap Brix by refractometer, Malbec field trial (Example 1)", "type": "in vivo, Vitis vinifera", "design": "% BRIX, Plant #1 / % BRIX, Plant #2 / % BRIX, Plant #3: reference not given here", "details": "for AVG Brix, Plant #1 / AVG Brix, Plant #2 / AVG Brix, Plant #3: average of 25 leaves; for Brix, individual leaves, Plant #1 / Brix, individual leaves, Plant #2 / Brix, individual leaves, Plant #3: leaf sap; for Brix, individual leaves, Plant #1: MDJ treated Plant #1, leaf no. 1-25; for Brix, individual leaves, Plant #2: MDJ treated Plant #2, leaf no. 1-25; for Brix, individual leaves, Plant #3: MDJ treated Plant #3, leaf no. 1-25", "protocol": "An eliciting composition and methods of use to alter metabolite production were tested on 6 acres of a Malbec variety planted in 1999 in Napa Valley, California. Plants were spaced 5′×10′ (900 vines per acre) and grouped into randomized blocks of 900 vines per group, with six replicates covering three acres for the treatment group, and six replicates covering three acres for the control group. The treatment group received two applications of 32 oz of MDJ applied at a rate of 100 gallons per acre (2.5 mM), once prior to veraison on Aug. 9, 2021 and again when 5-10% of berries were starting to blush (veraison) using a ground spray rig (backpack sprayer). From within each replicate, three plants were selected at random, and 25 leaves from each plant were randomly selected for analysis. The internal sap of the leaves was tested using a refractometer on the days shown below in Table 4 and FIG. 1. Data from each replicate was averaged (25 leaves from each plant, 3 plants)."}, "[2]": {"test_system": "Black seedless grapes (Vitis labrusca)", "experiment": "Fruit Brix and titratable acid, black seedless grapes (Example 5)", "type": "in vivo", "details": "for Fruit BRIX / Titratable Acid, fruit: ABCDE; for Fruit BRIX: Aug. 11, 2022; for Titratable Acid, fruit: Sep. 8, 2022", "protocol": "Field trials were conducted in California 2022 (a dry year) to investigate the efficacy of MDJ in preventing Sour Rot caused by Aspergillus carbonarius (also known as summer bunch rot, abbreviated ASPECA in Table 7). Black seedless grapes (Vitis labrusca) were used in this trial. Four vines were used per plot. The plots were arranged in a randomized complete block design with six replicates (plots) per treatment. The plots were sprayed five times (ABCDE) at a rate of 500 gal/AC.\nTreatments consisted of MDJ at 32 oz and 48 oz/A. A treatment of Regalia® at 1.5 qt/100 gal and Stargus® at 2 qt/100 gal was included for comparative purposes. Application D occurred at 5-10% veraison. Application E occurred at 40% veraison.\nA randomly selected sample of approximately twenty wine grapes was used to evaluate the Brix and titratable acid. Another randomly selected sample (>500 g) was shipped to ETS Laboratories (Paso Robles, CA) for a red grape panel analysis (catechin, quercetin glycosides, tannin, polymeric anthocyanins, total anthocyanins, catechin/tannin index, and polymeric anthocyanins/tannin index). […] Total anthocyanins increased over 17% (449.1 in untreated controls compared to 529.3 in the group treated with 48 oz/A MDJ). An increase in quercetin glycosides, tannin, and polymeric anthocyanins, was also observed in MDJ treated plants (Table 8), as well as titratable acid (Table 9)."}, "Malbec wine grape juice": {"test_system": "Malbec wine grape juice", "experiment": "Key metabolites in wine grape juice by HPLC with UV detection (Example 2)", "type": "in vivo, Vitis vinifera", "protocol": "200 grapes were randomly selected from the MDJ treated group and control group of the study described above in Example 1. Samples were pooled from each group and juice was prepared for winemaking used standard practices. The juice was analyzed for several key metabolites important for wine making (Table 6). All samples were run on Agilent HPLC with UV detection for the compounds listed below. Between 50 μL-100 μL was injected into the machine per sample."}, "[3]": {"details": "Replicate 4, Oct. 5, 2021, MDJ treated Plant #1"}, "[4]": {"details": "Replicate 4, Oct. 5, 2021, MDJ treated Plant #2"}, "[5]": {"details": "Replicate 4, Oct. 5, 2021, MDJ treated Plant #3"}, "[6]": {"details": "Replicate 5, Oct. 10, 2021, MDJ treated Plant #1"}, "[7]": {"details": "Replicate 5, Oct. 10, 2021, MDJ treated Plant #2"}, "[8]": {"details": "Replicate 5, Oct. 10, 2021, MDJ treated Plant #3"}, "[9]": {"details": "Replicate 6, Oct. 30, 2021, MDJ treated Plant #1"}, "[10]": {"details": "Replicate 6, Oct. 30, 2021, MDJ treated Plant #2"}, "[11]": {"details": "Replicate 6, Oct. 30, 2021, MDJ treated Plant #3"}, "[12]": {"details": "Replicate 4 sampled on Oct. 5, 2021"}, "[13]": {"details": "Replicate 5 sampled on Oct. 10, 2021"}, "[14]": {"details": "Replicate 6 sampled on Oct. 30, 2021"}, "[15]": {"details": "Malbec MDJ treated (2.5 mM, Example 1 trial), pooled 200 grapes"}},
  "note": "“And” between values parts separate entries of the source, which are not always exact repeats. Equal values may be shown once.",
  "data": [
    {"compound": "CCCCCC1C(=O)CCC1CC(=O)OC", "note": "(stereo not shown) [MDJ, methyl dihydrojasmonate]", "values": [
      {"measurement": "% BRIX, Plant #1", "setting": "[1]; [3]", "result": 119.5, "unit": "%"},
      {"measurement": "% BRIX, Plant #2", "setting": "[1]; [4]", "result": 119.2, "unit": "%"},
      {"measurement": "% BRIX, Plant #3", "setting": "[1]; [5]", "result": 120.8, "unit": "%"},
      {"measurement": "% BRIX, Plant #1", "setting": "[1]; [6]", "result": 111.4, "unit": "%"},
      {"measurement": "% BRIX, Plant #2", "setting": "[1]; [7]", "result": 111.4, "unit": "%"},
      {"measurement": "% BRIX, Plant #3", "setting": "[1]; [8]", "result": 107.3, "unit": "%"},
      {"measurement": "% BRIX, Plant #1", "setting": "[1]; [9]", "result": 99.2, "unit": "%"},
      {"measurement": "% BRIX, Plant #2", "setting": "[1]; [10]", "result": 110.1, "unit": "%"},
      {"measurement": "% BRIX, Plant #3", "setting": "[1]; [11]", "result": 103.2, "unit": "%"},
      {"measurement": "AVG Brix, Plant #1", "setting": "[1]; [3]", "result": 29.9},
      {"measurement": "AVG Brix, Plant #2", "setting": "[1]; [4]", "result": 29.8},
      {"measurement": "AVG Brix, Plant #3", "setting": "[1]; [5]", "result": 30.2},
      {"measurement": "AVG Brix, Plant #1", "setting": "[1]; [6]", "result": 27.9},
      {"measurement": "AVG Brix, Plant #2", "setting": "[1]; [7]", "result": 27.8},
      {"measurement": "AVG Brix, Plant #3", "setting": "[1]; [8]", "result": 26.8},
      {"measurement": "AVG Brix, Plant #1", "setting": "[1]; [9]", "result": 24.8},
      {"measurement": "AVG Brix, Plant #2", "setting": "[1]; [10]", "result": 27.5},
      {"measurement": "AVG Brix, Plant #3", "setting": "[1]; [11]", "result": 25.8},
      {"measurement": "Brix, individual leaves, Plant #1", "setting": "[1]; Replicate 4 sampled on Oct. 5, 2021, two applications of 32 oz MDJ at 100 gal/acre (2.5 mM)", "result": "30.6 and 29.8 (2×) and 29.0 and 29.5 (6×) and 32.3 and 28.7 and 28.9 (3×) and 29.7 (2×) and 28.8 and 30.0 and 30.4 and 33.3 and 29.9 (2×) and 31.8 and 29.6"},
      {"measurement": "Brix, individual leaves, Plant #2", "setting": "[1]; [12]", "result": "29.3 (2×) and 28.0 and 26.9 and 28.5 and 29.9 (2×) and 29.8 (3×) and 30.1 and 28.9 (2×) and 29.4 and 28.3 and 33.3 and 33.0 and 32.9 and 32.5 and 28.8 and 30.4 and 29.5 (2×) and 29.6 and 28.7"},
      {"measurement": "Brix, individual leaves, Plant #3", "setting": "[1]; [12]", "result": "31.9 and 29.8 (2×) and 29.2 and 29.3 and 29.9 (4×) and 28.5 and 30.4 and 29.5 (2×) and 31.0 and 32.5 and 32.9 and 29.0 and 28.7 and 28.8 and 30.1 and 30.3 and 29.6 and 33.0 and 32.8 and 28.9"},
      {"measurement": "Brix, individual leaves, Plant #1", "setting": "[1]; [13]", "result": "28.7 and 26.1 and 26.2 and 27.2 and 27.7 and 27.6 (2×) and 26.4 (2×) and 28.2 and 28.8 (3×) and 25.8 and 28.5 and 26.0 and 26.9 and 29.5 (2×) and 27.4 and 32.0 and 23.8 and 29.9 and 30.5 and 28.0"},
      {"measurement": "Brix, individual leaves, Plant #2", "setting": "[1]; [13]", "result": "28.5 (2×) and 27.5 (2×) and 29.1 and 26.8 and 26.4 and 27.8 and 29.9 and 28.7 (2×) and 29.4 and 28.3 and 29.5 and 28.6 and 25.0 and 27.6 and 25.9 and 29.8 and 28.4 and 28.0 and 26.0 and 26.1 and 27.2 and 27.0"},
      {"measurement": "Brix, individual leaves, Plant #3", "setting": "[1]; [13]", "result": "26.8 (3×) and 24.5 and 26.3 (2×) and 25.5 (3×) and 25.3 and 28.5 (4×) and 26.7 and 25.8 and 27.0 and 28.7 and 26.9 and 29.8 and 27.5 (2×) and 26.0 and 26.5 and 24.8"},
      {"measurement": "Brix, individual leaves, Plant #1", "setting": "[1]; [14]", "result": "23.4 and 23.8 (2×) and 24.0 (4×) and 26.0 (2×) and 25.0 (3×) and 25.1 and 26.6 (2×) and 25.6 and 24.5 (2×) and 24.8 (2×) and 24.7 and 23.9 and 22.8 and 25.5 and 26.5"},
      {"measurement": "Brix, individual leaves, Plant #2", "setting": "[1]; [14]", "result": "28.7 (2×) and 24.5 and 24.1 and 26.0 (2×) and 28.0 (3×) and 27.1 and 26.4 and 29.1 and 25.5 and 28.5 (2×) and 26.9 and 29.8 (2×) and 29.9 and 27.3 (2×) and 24.9 and 26.6 and 29.5 and 29.0"},
      {"measurement": "Brix, individual leaves, Plant #3", "setting": "[1]; [14]", "result": "25.0 (2×) and 23.1 and 22.9 (2×) and 28.1 and 25.8 and 26.9 and 25.5 and 25.6 (2×) and 26.2 and 23.9 (2×) and 28.8 and 26.3 and 27.2 and 27.3 and 26.1 and 24.6 and 25.7 and 29.9 and 28.4 and 25.4 and 24.9"},
      {"measurement": "Fruit BRIX", "setting": "[2]; 32 oz/a", "result": "19.080— %"},
      {"measurement": "Titratable Acid, fruit", "setting": "[2]; 32 oz/a", "result": "5.83— g/L"},
      {"measurement": "Fruit BRIX", "setting": "[2]; 48 oz/a", "result": "19.560— %"},
      {"measurement": "Titratable Acid, fruit", "setting": "[2]; 48 oz/a", "result": "6.67— g/L"},
      {"measurement": "Fruit Brix vs untreated", "setting": "[2]; MDJ treated plants", "result": "increase"},
      {"measurement": "Titratable acid vs untreated", "setting": "[2]; MDJ treated plants", "result": "increase"},
      {"measurement": "Catechin in wine grape juice", "setting": "Malbec wine grape juice; [15]", "result": 28, "unit": "mg/L"},
      {"measurement": "Polymeric anthocyanins in wine grape juice", "setting": "Malbec wine grape juice; [15]", "result": 24, "unit": "mg/L"},
      {"measurement": "Quercetin glycosides in wine grape juice", "setting": "Malbec wine grape juice; [15]", "result": 23, "unit": "mg/L"},
      {"measurement": "Tannin in wine grape juice", "setting": "Malbec wine grape juice; [15]", "result": 393, "unit": "mg/L"},
      {"measurement": "Total anthocyanins in wine grape juice", "setting": "Malbec wine grape juice; [15]", "result": 1697, "unit": "mg/L"},
      {"measurement": "Increase of total anthocyanins vs control", "setting": "Malbec wine grape juice; Malbec wine grape juice, MDJ treatment group", "result": "approximately 8%"},
      {"measurement": "Color of grape wine juice vs control group", "setting": "Malbec wine grape juice; Malbec, MDJ treatment group, FIG. 2", "result": "richer, darker red color"}
    ]}
  ]
}
